Among the data in US12351570B2 (MERCK PATENT GMBH, priority 2018, dated 2025) are IC50 values, retold here.

In this test the test system is MDA-MB-231 cells. Put plainly: Extracellular lactate production inhibition after 4 h, MDA-MB-231. Particulars: Homo sapiens, MDA-MB-231.
For orientation: IC50 means the point on the concentration scale where inhibition reaches its midpoint. Compound `Cc1ccccc1-c1cccc(S(=O)(=O)Nc2ccccc2C#Cc2ccc(C(=O)O)cc2)c1` [Compound 86, 4-[2-(2-{2′-methyl-[1,1′-biphenyl]-3-sulfonamido}phenyl)ethynyl]benzoic acid] registered an IC50 of 1000 to 100000 nM.
As for `Cc1ccc2cccnc2c1S(=O)(=O)Nc1ccccc1C#Cc1cnc(C(=O)O)c2c1NCCN2` [Compound 415, 8-{2-[2-(7-methylquinoline-8-sulfonamido)phenyl]ethynyl}-1H,2H,3H,4H-pyrido[3,4-b]pyrazine-5-carboxylic acid], the IC50 lay in the range of 100 to 1000 nM.
In the case of `Cc1cc(C#Cc2ccccc2NS(=O)(=O)N2CCC[C@@H]3CCCC[C@H]32)cnc1C(=O)O` [Compound 225, 5-[2-(2-{[(4a,8a-trans)-decahydro-quinoline-1-sulfonyl]amino}phenyl)-ethynyl]-3-methylpyridine-2-carboxylic acid], the IC50 is 10 to 100 nM.
For the compound `COc1ccc(C#Cc2ccc(C(=O)O)cc2)c(NS(=O)(=O)c2ccc3ccccc3c2)c1` [Compound 19, 4-{2-[4-methoxy-2-(naphthalene-2-sulfonamido)phenyl]ethynyl}benzoic acid], the IC50 was in the range of 100 to 1000 nM.
`COc1ccc(S(=O)(=O)Nc2ccccc2C#Cc2ccc(C(=O)O)c(C)c2)c2ccccc12` [Compound 18, 4-{2-[2-(4-methoxynaphthalene-1-sulfonamido)phenyl]ethynyl}-2-methylbenzoic acid] gave a half-inhibitory concentration (IC50) of 100 to 1000 nM.
The figure for `O=C(O)c1ccc(C#Cc2ccccc2NS(=O)(=O)c2c(Cl)nc3sccn23)cn1` [Compound 98, 5-[2-(2-{6-chloroimidazo[2,1-b][1,3]thiazole-5-sulfonamido}phenyl)-ethynyl]pyridine-2-carboxylic acid] is 1000 to 100000 nM; for `O=C(O)c1ccc(C#Cc2ccccc2NS(=O)(=O)N2CCc3cccnc32)cn1` [Compound 145, 5-{2-[2-({1H,2H,3H-pyrrolo[2,3-b]pyridine-1-sulfonyl}amino)phenyl]-ethynyl}pyridine-2-carboxylic acid] it is 1000 to 100000 nM; for `O=C(O)c1ccc(C#Cc2ccccc2NS(=O)(=O)c2ccc3ccccc3c2)cc1O` [Compound 5, 2-hydroxy-4-{2-[2-(naphthalene-2-sulfonamido)phenyl]ethynyl}benzoic acid] it is 1000 to 100000 nM.
Regarding `Cc1cc(C#Cc2ccccc2NS(=O)(=O)c2ccc(OC(F)(F)F)c3cccnc23)cnc1C(=O)O` [Compound 382, 3-Methyl-5-[2-(5-trifluoromethoxy-quinoline-8-sulfonylamino)-phenylethynyl]-pyridine-2-carboxylic acid], the IC50 lay in the range of 10 to 100 nM.
The compound `CCc1cc(C#Cc2ccccc2NS(=O)(=O)c2c(CC)ccc3cccnc23)cnc1C(=O)O` [Compound 375, 3-Ethyl-5-[2-(7-ethyl-quinoline-8-sulfonylamino)-phenylethynyl]-pyridine-2-carboxylic acid] had an IC50 of 1 to 10 nM.
`Cc1cc(C#Cc2ccccc2NS(=O)(=O)c2ccc3ccccc3c2)ccc1C(=O)O` [Compound 10, 2-methyl-4-{2-[2-(naphthalene-2-sulfonamido)phenyl]ethynyl}benzoic acid] returned an IC50 of 100 to 1000 nM.
Under `Cc1ccc2cccnc2c1S(=O)(=O)Nc1ccc(Cl)cc1C#Cc1cnc(C(=O)O)c2ccccc12` [Compound 234, 4-{2-[5-chloro-2-(7-methylquinoline-8-sulfonamido)phenyl]ethynyl}isoquinoline-1-carboxylic acid] stands 10 to 100 nM; under `CCc1ccc2cccnc2c1S(=O)(=O)Nc1ccccc1C#Cc1cnc(C(=O)O)cc1OC` [Compound 369, 5-{2-[2-(7-ethylquinoline-8-sulfonamido)phenyl]ethynyl}-4-methoxypyridine-2-carboxylic acid], 1 to 10 nM.
As for `O=CN(Cc1ccc(-c2ccccc2)nc1)c1ccccc1C#Cc1ccc(C(=O)O)nc1` [Compound 220, 5-[2-(2-{N-[(6-phenylpyridin-3-yl)methyl]formamido}phenyl)-ethynyl]pyridine-2-carboxylic acid], the IC50 is 100 to 1000 nM.
`COC(=O)c1ccc(C#Cc2cc(F)ccc2NS(=O)(=O)c2c(C)ccc3cccnc23)cn1` [Compound 134, methyl 5-{2-[5-fluoro-2-(7-methylquinoline-8-sulfonamido)phenyl]ethynyl}pyridine-2-carboxylate] yielded an IC50 of 10 to 100 nM.
In turn, `O=C(O)c1ccc(C#Cc2ccccc2NS(=O)(=O)c2ccc3ccccc3c2)cc1Cl` [Compound 28, 2-chloro-4-{2-[2-(naphthalene-2-sulfonamido)phenyl]ethynyl}benzoic acid] showed an IC50 of 100 to 1000 nM.
The figure for `COc1ccc(S(=O)(=O)Nc2ccccc2C#Cc2ccc(C(=O)O)nc2C)c2ncccc12` [Compound 130, 5-{2-[2-(5-methoxyquinoline-8-sulfonamido)phenyl]ethynyl}-6-methylpyridine-2-carboxylic acid] is 1000 to 100000 nM; for `Cc1ccc2cccnc2c1S(=O)(=O)Nc1ccccc1C#Cc1ccc(C(=O)OCCCCN(C)C)nc1` [Compound 407, 4-(dimethylamino)butyl 5-{2-[2-(7-methylquinoline-8-sulfonamido)phenyl]ethyny}pyridine-2-carboxylate] it is 1000 to 100000 nM; for `O=C(O)c1ccc(C#Cc2ccccc2NS(=O)(=O)c2ccc3c(c2)CCCC3)cc1` [Compound 7, 4-{2-[2-(5,6,7,8-tetrahydronaphthalene-2-sulfonamido)phenyl]ethynyl}benzoic acid] it is 100 to 1000 nM.
Regarding `O=C(O)c1ccc(C#Cc2ccccc2NS(=O)(=O)c2cc(F)cc3cccnc23)cn1` [Compound 294, 5-{2-[2-(6-fluoroquinoline-8-sulfonamido)phenyl]ethynyl}pyridine-2-carboxylic acid], the IC50 lay within 100 to 1000 nM.
Turning to `O=C(O)c1ccc(C#Cc2ccccc2NS(=O)(=O)c2cccc3nccnc23)cc1` [Compound 66, 4-{2-[2-(quinoxaline-5-sulfonamido)phenyl]ethynyl}benzoic acid], the IC50 lay in the range of 1000 to 100000 nM.
`COc1cc(C#Cc2ccccc2NS(=O)(=O)c2ccc(OC)c3cccnc23)cnc1C(=O)O` [Compound 170, 3-methoxy-5-{2-[2-(5-methoxyquinoline-8-sulfonamido)phenyl]ethynyl}pyridine-2-carboxylic acid] had an IC50 of 1000 to 100000 nM.
In the case of `CCOc1ccc(S(=O)(=O)Nc2ccccc2C#Cc2cnc(C(=O)O)c(CC)c2)c2ncccc12` [Compound 371, 5-[2-(5-Ethoxy-quinoline-8-sulfonylamino)-phenylethynyl]-3-ethyl-pyridine-2-carboxylic acid], the IC50 lay within 1 to 10 nM.
The figure for `O=CN(Cc1cccc(-c2ccccc2)c1)c1ccccc1C#Cc1ccc(C(=O)O)nc1` [Compound 181, 5-(2-{2-[N-({[1,1′-biphenyl]-3-yl}methyl)formamido]phenyl}-ethynyl)pyridine-2-carboxylic acid] is 100 to 1000 nM; for `CNc1cc(C#Cc2ccccc2NS(=O)(=O)c2ccc(OC)c3cccnc23)cnc1C(=O)N(C)C` [Compound 246, 5-{2-[2-(5-methoxyquinoline-8-sulfonamido)phenyl]ethynyl}-N,N-dimethyl-3-(methylamino)pyridine-2-carboxamide] it is 1000 to 100000 nM.
On to `O=C(O)c1ccc(C#Cc2ccccc2NS(=O)(=O)c2ccccc2-c2ccccc2)cn1` [Compound 141, 5-[2-(2-{[1,1′-biphenyl]-2-sulfonamido}phenyl)ethynyl]pyridine-2-carboxylic acid], for which the 50% inhibitory concentration (IC50) was in the range of 100 to 1000 nM.
Under `COc1cc(C(=O)O)ncc1C#Cc1ccccc1NS(=O)(=O)N1CCC[C@@H]2CCCC[C@H]21` [Compound 221, 5-[2-(2-{[(4a,8a-trans)-decahydro-quinoline-1-sulfonyl]amino}phenyl)-ethynyl]-4-methoxypyridine-2-carboxylic acid] stands 1 to 10 nM.
In turn, `COc1ccc(S(=O)(=O)Nc2ccc(Cl)cc2C#Cc2ccc(C(=O)O)nc2)c(C)c1C` [Compound 387, 5-[5-Chloro-2-(4-methoxy-2,3-dimethyl-benzenesulfonylamino)-phenylethynyl]-pyridine-2-carboxylic acid] showed an IC50 of 10 to 100 nM.
Consider `COc1ccc(S(=O)(=O)Nc2ccc(Cl)cc2C#Cc2cnc(C(=O)O)c3ccccc23)c2ncccc12` [Compound 236, 4-{2-[5-chloro-2-(5-methoxyquinoline-8-sulfonamido)phenyl]ethynyl}isoquinoline-1-carboxylic acid], for which the IC50 lay in the range of 10 to 100 nM.
The figure for `Cc1cccc(S(C)(=O)=Nc2ccccc2C#Cc2ccc(C(=O)O)nc2)c1` (stereo not drawn) [Compound 435, 5-[2-(2-{[methyl(3-methylphenyl)oxo-λ6-sulfanylidene]amino}phenyl)ethynyl] pyridine-2-carboxylic acid] is 1000 to 100000 nM; for `COc1ccc(S(=O)(=O)Nc2ccc(Br)cc2C#Cc2cnc(C(=O)O)c3ccccc23)c2ncccc12` [Compound 235, 4-{2-[5-bromo-2-(5-methoxyquinoline-8-sulfonamido)phenyl]ethynyl}isoquinoline-1-carboxylic acid] it is 1 to 10 nM; for `Cc1ccc2cccnc2c1S(=O)(=O)Nc1ccccc1C#Cc1cnc(C(=O)O)c(CO)c1` [Compound 399, 3-(hydroxymethyl)-5-{2-[2-(7-methylquinoline-8-sulfonamido)phenyl]ethynyl}pyridine-2-carboxylic acid] it is 100 to 1000 nM.
Under `CS(=O)(=Nc1ccccc1C#Cc1cnc(C(=O)O)c2ccccc12)c1cccc2cccnc12` (stereo not drawn) [Compound 448, 4-[2-(2-{[methyl(oxo)(quinolin-8-yl)-λ6-sulfanylidene]amino}phenyl)ethynyl]-isoquinoline-1-carboxylic acid] stands 100 to 1000 nM.
For the compound `CNc1ccnc2c(S(=O)(=O)Nc3ccccc3C#Cc3ccc(C(=O)O)nc3)cccc12` [Compound 423, 5-[2-(4-Methylamino-quinoline-8-sulfonylamino)-phenylethynyl]-pyridine-2-carboxylic acid], the concentration for half-maximal inhibition (IC50) is 1000 to 100000 nM.
`COc1cc(-c2ccccc2)ccc1CN(C=O)c1ccccc1C#Cc1ccc(C(=O)O)nc1` [Compound 213, 5-(2-{2-[N-({3-methoxy-[1,1′-biphenyl]-4-yl}methyl)formamido]phenyl}-ethynyl)pyridine-2-carboxylic acid]: the IC50 lay within 10 to 100 nM.
As to `O=C(O)c1ccc(C#Cc2ccccc2NS(=O)(=O)c2cccc3cccnc23)cn1` [Compound 52, 5-{2-[2-(quinoline-8-sulfonamido)phenyl]ethynyl}pyridine-2-carboxylic acid], the IC50 lay within 100 to 1000 nM.
